Results taken from publication PMC8922281, “Synthesis and In Vitro Biological Evaluation of Quinolinyl Pyrimidines Targeting Type II NADH-Dehydrogenase (NDH-2)” (ACS Infectious Diseases, 2022).
Converted amounts (≈) assume the structure as drawn.

Test system: A. baumannii ATCC19606 resistant mutant
Experiment: microbe, parasite or virus in culture
Assay type: cell-based

Question: `CCOc1cc(Nc2ccc3nc(-c4ccc(F)cc4)cc(N)c3c2)nc(N)n1` [Compound 9a, N^6-(2-Amino-6-ethoxypyrimidin-4-yl)-2-(4-fluorophenyl)quinoline-4,6-diamine] was tested. Which MIC (Acinetobacter baumannii, ATCC19606, read-out: MIC mutant) did it give?
Answer: Its MIC is 4 µg/mL (≈ 10.2 µM).

Question: What about the “fold increase of MIC” value (mutant CH5080 vs parent A. baumannii ATCC19606) of the same compound?
Answer: The value was 2.
